Test results taken from PMC5794198, “Inhibitors of Trypanosoma cruzi Sir2 related protein 1 as potential drugs against Chagas disease” (PLoS Neglected Tropical Diseases, 2018).
“Also recorded” adds a separate entry of the source.

Tests used:
T. cruzi Y strain (Luc+) = assay: Mouse model of T. cruzi infection, bioluminescence imaging; type: in vivo, BALB/c mice; details: 100 mg/kg/day per os, 4 days
Method: To evaluate BNIPSpd (9) efficacy in vivo, five- to six-week-old female BALB/c mice (Charles River) and infected with T. cruzi trypomastigotes expressing luciferase. Parasites were collected from the supernatants of a monolayer of Vero infected cells, washed and suspended in PBS-glucose 0.2%, and injected intraperitoneally (1 x 10^4 per mouse). After 7 days of infection, mice were treated with drugs for 4 consecutive days orally with (benznidazole in 20% Kolliphor HS 15) or intravenously with (BNIPSpd (9) in 10% DMSO) at a dose of 100 or 5 mg/kg/day, respectively. Infection and treatment efficiency were evaluated following subcutaneous injection of 2.1 mg of luciferin and through live imaging using an IVIS Lumina LT (Perkin Elmer). Images of the animals were analysed using the Living Image software (Perkin Elmer).
Supplementary file pntd.0006180.s006.tif: S5 Fig In vivo efficacy testing of BNIPSpd (9). A) Mice were infected with 10^4 Luc^+ trypomastigotes by intraperitoneal injection. […] In the lower panel, bioluminescence signal of whole mice represented in average radiance (photons/sec/cm^2/sr) quantified before and after treatment. […] B) Snapshot Pharmacokinetics of BNIPSpd (9) in BALB/c mice by quantification of BNIPSpd (9) in the blood of mice by UHPLC-MS/MS ESI+ at different time-points after administration of a 5 mg/kg dose by intravenous injection. […]

[1] = C2C12 host cell cytotoxicity (cell ratio) in HCS assay; type: cell-based, Mouse; details: mouse, cell ratio, 72 h; read-out: C2C12 Cytotoxicity (CC50 ± SD)
Method: (§1) For the evaluation of the activity against T. cruzi amastigotes, high-content screening (HCS) was designed. In summary, 100 μL of host C2C12 cells (ATCC) were seeded in clear bottom black 96-well plates at a density of 2.5 x 10^4 cells/mL (2.5 × 10^3 cells/well). […] The parasites were allowed to infect for a 24 hr period, after which compounds were added in a volume of 50 μL. […] After 72 hrs of compound incubation, the wells were fixed with 4% paraformaldehyde for 15 to 30 mins. The plates were then washed once with deionized water and stained with a solution of DAPI (3 μM) for 1 hour. Plates were imaged in an INCell 2000 (GE Healthcare) high-content analyser by taking 16 pictures per well at 20 X objective amplification. Images were analysed with INCell Developer software (GE Healthcare) using the segmentation of host cell nuclei and parasite kinetoplast DNA. The measurement output used was the average number of parasites per cell calculated by the ratio of host cell nuclei/parasite kinetoplast DNA.

C2C12 cells = assay: as above; type: cell-based, Mouse; details: for Selectivity Index: CC50 cell line (C2C12)/EC50 T. cruzi
Method: as §1

T. cruzi amastigotes = assay: High-content screening assay on intracellular T. cruzi amastigotes; type: cell-based, Trypanosoma cruzi; details: Trypanosoma cruzi, C2C12, 72 h, Y strain in C2C12 host cells, 72 h; read-out: Anti-T. cruzi Activity Amastigotes (EC50 ± SD)
Method: For the evaluation of the activity against T. cruzi amastigotes, high-content screening (HCS) was designed. In summary, 100 μL of host C2C12 cells (ATCC) were seeded in clear bottom black 96-well plates at a density of 2.5 x 10^4 cells/mL (2.5 × 10^3 cells/well). After 24 hrs, 50 μL of Y strain tissue culture-derived trypomastigotes were used to infect the host cells at a density of 7.5 x 10^5/mL (3.75 x 10^4 parasites/well). The parasites were allowed to infect for a 24 hr period, after which compounds were added in a volume of 50 μL. […] After 72 hrs of compound incubation, the wells were fixed with 4% paraformaldehyde for 15 to 30 mins. The plates were then washed once with deionized water and stained with a solution of DAPI (3 μM) for 1 hour. Plates were imaged in an INCell 2000 (GE Healthcare) high-content analyser by taking 16 pictures per well at 20 X objective amplification. Images were analysed with INCell Developer software (GE Healthcare) using the segmentation of host cell nuclei and parasite kinetoplast DNA. The measurement output used was the average number of parasites per cell calculated by the ratio of host cell nuclei/parasite kinetoplast DNA.
In this assay, the compounds are incubated for 72 hours with cells previously infected with wild-type trypomastigotes for 24 hours. The readout was done by comparing the average number of amastigotes per cell that developed by the end of the incubation period. The quality of the assay was statistically evaluated by the calculation of the z-factor [75], that represents the reliability of the assay in distinguishing positive controls confidently from negative controls. Varying from 0 to 1, z-factor values higher than 0.5 are considered acceptable for drug screening. The z-factor obtained was 0.68, validating the use of the assay (S3B Fig).

[2] = test system: T. cruzi epimastigotes, wild-type (WT); assay: T. cruzi epimastigote resazurin viability assay, wild-type; type: cell-based, Trypanosoma cruzi; details: CL-Brener, 64 h + 6 h resazurin; means ± SD (n = 4)
Method: T. cruzi epimastigotes were seeded at 1.25 x 10^6 cells/mL in a 96-well plate in the presence of varying concentrations of test compounds. Following a 64-hour incubation, 15 μL of a resazurin solution (Sigma-Aldrich; 1.1 mg/mL in PBS). […] Each assay was performed in at least triplicate in parallel to the known trypanocidal agent nifurtimox.

TcSir2rp1 = TcSir2rp1 (Trypanosoma cruzi, UniProt Q4DVL9); assay: TcSir2rp1 NAD+-dependent deacetylase fluorimetric assay (CycLex kit); type: biochemical; details: for Inhibition of NAD+-dependent deacetylase activity of TcSir2rp1 / inhibition at 10 µM: single dose 10 μM, 200 μM NAD+, 10 μM peptide
TcSir2rp1, sequence (Q4DVL9 entry or part of it): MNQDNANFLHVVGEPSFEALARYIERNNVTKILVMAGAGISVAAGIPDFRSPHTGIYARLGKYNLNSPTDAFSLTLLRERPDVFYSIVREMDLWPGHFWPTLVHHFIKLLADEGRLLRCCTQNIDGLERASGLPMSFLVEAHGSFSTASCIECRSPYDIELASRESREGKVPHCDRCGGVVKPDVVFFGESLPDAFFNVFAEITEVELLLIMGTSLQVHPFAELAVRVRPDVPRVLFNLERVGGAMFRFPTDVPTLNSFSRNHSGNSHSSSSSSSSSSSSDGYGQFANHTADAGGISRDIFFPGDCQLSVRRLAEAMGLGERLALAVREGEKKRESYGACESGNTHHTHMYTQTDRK
Method: The deacetylase activity was measured using the commercial SIRT1/Sir2 Deacetylase Fluorometric Assay Kit (CycLex,Japan) according to the manufacturer’s recommendations. Briefly, fluorescence emission after digestion of deacetylated substrates by a lysine specific endopeptidase was measured in a fluorometric plate reader (Synergy HT, BioTek) with excitation and emission wavelengths set at 340 and 440 nm, respectively, every 30 seconds for 1 hour. The slope of the linear part of the reaction was calculated and used as readout of enzyme activity. […]
(§2) A variety of the bisnaphthalimidopropyl (BNIPs) derivatives, as well as the newly synthetized derivatives were evaluated as potential TcSir2rp1 inhibitors. The enzymatic reactions were performed using a commercially available CycLex SIRT1/Sir2 deacetylase fluorimetric kit (CycLex Co. Ltd., Nagano, Japan) in the absence and presence of the various inhibitors, 200 μM NAD^+ and 10 μM of peptide substrate as previously described.
as §2, with “µM” for “μM”

[3] = test system: T. cruzi epimastigotes overexpressing TcSir2rp1 (OE) with the pTcINDEX; assay: microbe, parasite or virus in culture; type: cell-based; details: Trypanosoma cruzi, read-out: EC50 against T. cruzi epimastigotes OE
Method: For the generation of transgenic cell lines, 15 μg of the constructs were digested overnight (SpeI for the pTcINDEX construct; NotI for the knockout constructs), precipitated with sodium acetate / ethanol, and introduced into 1.5 x 10^7 epimastigote cells in the logarithmic phase of growth via transfection using an AMAXA Nucleofector II device (program V-33) with the Human T-cell nucleofector kit (Lonza). Parasites were suspended in fresh growth medium and incubated for 24-hrs to allow for the expression of drug selectable markers, prior to the addition of appropriate antibiotic (Blasticidin S (Thermo Fisher Scientific; 10 μg/mL); Hygromycin B (Formedium; 100 μg/mL); and Puromycin (Calbiochem; 5 μg/mL). Cells were then incubated for a further four- to six-weeks to allow for the selection of transgenic parasites and then genetically verified by PCR using ORF and drug selection primers.
The TcSir2rp1 open reading frame (TriTryp accession number TcCLB.508207.150) was amplified from CL-Brener genomic DNA using KOD polymerase (Novagen). The resulting PCR product encoding the full-length ORF was cloned directly into the T. cruzi expression vector, pTcINDEX [49], using NotI and BamHI restriction sites.
T. cruzi epimastigotes were seeded at 1.25 x 10^6 cells/mL in a 96-well plate in the presence of varying concentrations of test compounds. Following a 64-hour incubation, 15 μL of a resazurin solution (Sigma-Aldrich; 1.1 mg/mL in PBS). Following an additional 6-hr incubation, cell viability was determined by measuring the fluorescence of each culture with a BioTek FLX800 Fluorescence Microplate Reader (excitation and emission wavelengths of 540/535 nm and 590/610 nm, respectively) and associated Gen5 Reader Control 2.0 software. EC50 values were determined by nonlinear regression to a sigmoidal dose-response curve using GraFit software (Version 5.0, Erithacus Software). Each assay was performed in at least triplicate in parallel to the known trypanocidal agent nifurtimox.

Solubility = type: physicochemical; details: limits the concentration tested

O=C(Cn1ccnc1[N+](=O)[O-])NCc1ccccc1 [Benznidazole, benznidazole, reference compound]
Reduction in the bioluminescence signal compared to vehicle (T. cruzi Y strain (Luc+)): 700 fold | CC50 at 72 h [1]: > 100 µM | Selectivity Index (C2C12 cells): > 81.0 | EC50 (T. cruzi amastigotes): 1.23 ± 0.3 µM

O=C1c2cccc3cccc(c23)C(=O)N1CCCNCCCCCNCCCN1C(=O)c2cccc3cccc(c23)C1=O [Compound 2]
EC50 against T. cruzi epimastigotes WT [2]: just as potent as nifurtimox | inhibition at 50 µM (TcSir2rp1; 50 μM): 55 ± 4% | Inhibition of NAD+-dependent deacetylase activity of TcSir2rp1 (TcSir2rp1): statistically significant inhibition | inhibition at 10 µM (TcSir2rp1): 42 ± 13% | Host cell toxicity in primary screening (C2C12 cells; single dose 2.5 μM): high cytotoxicity | EC50 [3]: 7.94 ± 0.78 µM

O=C1c2cccc3cccc(c23)C(=O)N1CCCNCCCCCCNCCCN1C(=O)c2cccc3cccc(c23)C1=O [Compound 3]
EC50 against T. cruzi epimastigotes WT [2]: moderate activity | inhibition at 20 µM (TcSir2rp1): 34 ± 11% | Inhibition of NAD+-dependent deacetylase activity of TcSir2rp1 (TcSir2rp1): statistically significant inhibition | inhibition at 10 µM (TcSir2rp1): 31 ± 8% | EC50 [3]: 102 ± 9.9 µM | Solubility in assay (qualitative) (Solubility): low solubility; also recorded: poor solubility

O=C1c2cccc3cccc(c23)C(=O)N1CCCNCCCCCCCCCNCCCN1C(=O)c2cccc3cccc(c23)C1=O [Compound 6]
EC50 against T. cruzi epimastigotes WT [2]: moderate activity | CC50 at 72 h [1]: 2.35 ± 0.77 µM | Selectivity Index (C2C12 cells): 1.7 | EC50 [3]: 113 ± 8.2 µM | EC50 (T. cruzi amastigotes): 1.45 ± 0.37 µM

O=C1c2cccc3cccc(c23)C(=O)N1CCCNCCCCCCCCCCNCCCN1C(=O)c2cccc3cccc(c23)C1=O [Compound 7]
EC50 against T. cruzi epimastigotes WT [2]: just as potent as nifurtimox | EC50 [3]: 2.97 ± 0.6 µM
